# From patent EP4810038A1, “METHOD FOR TREATING ALK-POSITIVE OR ROS1-POSITIVE NON-SMALL CELL LUNG CANCER” (Shenzhen TargetRx Co., Ltd., priority 2023, dated 2025)
# Experiment: Phase I clinical trial: safety and tolerability (TRAE, CNS-related AE, DLT, MTD, RP2D)
# Type: in vivo
# Conditions: for Any TRAE / TRAE Anemia / TRAE Diarrhea / TRAE Edema / TRAE Elevated alanine aminotransferase / TRAE Elevated creatinine / TRAE Hypercholesterolemia / TRAE Hypertriglyceridemia / TRAE Hyperuricemia / TRAE Hypoproteinemia / TRAE Increased AST / TRAE Increased LDL cholesterol / TRAE Increased creatine phosphokinase / TRAE Increased glutamine transferase / TRAE Increased lipase / TRAE Peripheral neuropathy / TRAE Positive for occult blood in urine / TRAE Proteinuria / TRAE Weight gain: 60mg dose group n=168
# Description: An adverse event will be described using MedDRA (Medical Dictionary for Regulatory Activities). Analysis of an adverse event will be based on a treatment emergent adverse event (TEAE). TEAE is defined as an adverse event that occur or worsen after a treatment/medication.
# Subjects in all the dose groups received a single dose on day 1 (D1), and the blood samples were collected for pharmacokinetic (PK) assay and tolerability observation. […] The administration frequency for the subjects in the subsequent dose groups after entering the multiple-dose period was determined based on the obtained PK and tolerability data. In this trial, the administration frequency for all the subjects could be adjusted throughout the trial based on the continuously acquired safety and PK data. The four lower dose groups (5 mg, 10 mg, 20 mg and 40 mg) used an accelerated titration design, with one subject enrolled in each dose group. […] The 60 mg dose group and the subsequent dose groups followed a "3+3" dose escalation method, and the MTD was determined. […] During the dose escalation, if a dose group was confirmed to have a preliminary antitumor effect and manageable safety (e.g., no DLT occurred in 3 subjects or only 1 out of 6 subjects experienced DLT), the dose level could be expanded after a discussion and confirmation by the researcher and the sponsor.
structure (smiles),measurement,setting,value
"[2H]C([2H])([2H])n1nc2c(c1C#N)-c1cnc(N)c(c1)O[C@H](C)c1cc(F)ccc1C(=O)N(C)C2 [compound A, (10R)-7-amino-12-fluoro-2-(methyl-d3)-10,16-dimethyl-15-oxo-10,15,16,17-tetrahydro-2H-8,4-(metheno)pyrazolo[4,3-h][2,5,11]benzoxadiazacyclotetradecine-3-carbonitrile]",Any TRAE,any level,159 (94.6) number of cases (%)
same,TRAE Anemia,any level,26 (15.5) number of cases (%)
same,TRAE Diarrhea,any level,8 (8.2) number of cases (%)
same,TRAE Edema,any level,45(22.7) number of cases (%)
same,TRAE Elevated alanine aminotransferase,any level,14 (8.3) number of cases (%)
same,TRAE Elevated creatinine,any level,11 (6.5) number of cases (%)
same,TRAE Hypercholesterolemia,any level,131 (78.0) number of cases (%)
same,TRAE Hypertriglyceridemia,any level,124 (73.8) number of cases (%)
same,TRAE Hyperuricemia,any level,26 (15.5) number of cases (%)
same,TRAE Hypoproteinemia,any level,10 (6.0) number of cases (%)
same,TRAE Increased AST,any level,18 (10.7) number of cases (%)
same,TRAE Increased LDL cholesterol,any level,45 (26.8) number of cases (%)
same,TRAE Increased creatine phosphokinase,any level,9 (5.4) number of cases (%)
same,TRAE Increased glutamine transferase,any level,9 (5.4) number of cases (%)
same,TRAE Increased lipase,any level,12 (7.1) number of cases (%)
same,TRAE Peripheral neuropathy,any level,34(20.2) number of cases (%)
same,TRAE Positive for occult blood in urine,any level,13 (7.7) number of cases (%)
same,TRAE Proteinuria,any level,7 (7.2) number of cases (%)
same,TRAE Weight gain,any level,77 (45.8) number of cases (%)
same,Any TRAE,≥3,61 (36.3%) number of cases (%)
same,TRAE Anemia,≥3,4 (2.4) number of cases (%)
same,TRAE Diarrhea,≥3,0 number of cases (%)
same,TRAE Edema,≥3,2 (1.2) number of cases (%)
same,TRAE Elevated alanine aminotransferase,≥3,0 number of cases (%)
same,TRAE Elevated creatinine,≥3,0 number of cases (%)
same,TRAE Hypercholesterolemia,≥3,17 (10.1) number of cases (%)
same,TRAE Hypertriglyceridemia,≥3,31 (18.5) number of cases (%)
same,TRAE Hyperuricemia,≥3,4 (2.4) number of cases (%)
same,TRAE Hypoproteinemia,≥3,0 number of cases (%)
same,TRAE Increased AST,≥3,0 number of cases (%)
same,TRAE Increased LDL cholesterol,≥3,0 number of cases (%)
same,TRAE Increased creatine phosphokinase,≥3,0 number of cases (%)
same,TRAE Increased glutamine transferase,≥3,2 (1.2) number of cases (%)
same,TRAE Increased lipase,≥3,1 (0.6) number of cases (%)
same,TRAE Peripheral neuropathy,≥3,1 (0.6) number of cases (%)
same,TRAE Positive for occult blood in urine,≥3,0 number of cases (%)
same,TRAE Proteinuria,≥3,0 number of cases (%)
same,TRAE Weight gain,≥3,11 (6.5) number of cases (%)
same,dose interruption or dose reduction due to treatment-related CNS AEs,198 patients,no dose interruption or dose reduction was observed
same,most common TRAEs,198 patients,"hypercholesterolemia, hypertriglyceridemia, or weight gain"
same,patients with grade ≥ 3 treatment-related CNS AEs,198 patients,1.0%
same,Any CNS-related AE,Any level,18 (9.1) number of cases (%)
same,CNS-related AE: Anger,Any level,1 (0.5) number of cases (%)
same,CNS-related AE: Cognitive impairment,Any level,1 (0.5) number of cases (%)
same,CNS-related AE: Depression,Any level,3 (1.5) number of cases (%)
same,CNS-related AE: Disorganized speech,Any level,1 (0.5) number of cases (%)
same,CNS-related AE: Impact on cognition,Any level,5 (2.5) number of cases (%)
same,CNS-related AE: Impact on emotion,Any level,4 (2.0) number of cases (%)
same,CNS-related AE: Impact on language,Any level,2 (1.0) number of cases (%)
same,CNS-related AE: Impact on sleep,Any level,7 (4.5) number of cases (%)
same,CNS-related AE: Insomnia,Any level,1 (0.5) number of cases (%)
same,CNS-related AE: Memory impairment,Any level,3 (1.5) number of cases (%)
same,CNS-related AE: Mental disorder,Any level,1 (0.5) number of cases (%)
same,CNS-related AE: Poor sleep quality,Any level,6 (4.0) number of cases (%)
same,CNS-related AE: Speech disorder,Any level,1 (0.5) number of cases (%)
